Laboratory results from paper PMC7913621 (Molecules, 2021).

Legend:
[1] = tested on: epidermoid carcinoma A-431; experiment: MTT cell viability assay, A-431; type: cell-based, human; details: A-431, MTT, 72 h, median (95% Confidence Intervals)
Procedure: (§1) The following human cell lines were used in this study: (i) epidermoid carcinoma A-431 (ATCC® CRL-1555), (ii) lung carcinoma A549 (ATCC® CCL-185), (iii) colorectal carcinoma HCT116 (ATCC® CCL-247), (iv) HCT116p53^−/−, (v) glioblastoma U-87 MG (ATCC® HTB-14), (vi) glioblastoma U-251 MG (ECACC 09063001), (vii) breast adenocarcinoma MCF7 (ATCC® HTB-22), (viii) breast adenocarcinoma MDA-MB-231 (ECACC 92020424), (ix) papillomavirus-related cervical squamous cell carcinoma SKG-IIIa (RRID:CVCL_1704), (x) cervical adenocarcinoma HeLa (ATCC® CCL-2), (xi) bone osteosarcoma U-2 OS (ATCC® HTB-96), (xii) hepatocellular carcinoma HEPG2 (ATCC® HB-8065), (xiii) larynx squamous cell carcinoma BICR 18 (ECACC 06051601), (ix) kidney HEK 293T (ATCC® CRL-11268), (xv) normal lung fibroblasts MRC-5 (ATCC® CCL-171), (xvi) normal fibroblasts BJ (ATCC® CRL-2522). The HCT116p53^−/− cell line was a kind gift from professor Bert Vogelstein (John Hopkin’s University, Baltimore, MD, USA). The remaining cell lines were purchased from ATCC (Manassas, VA, USA) or Sigma-Aldrich by Merck (Darmstadt, Germany).
(§2) Cells were cultured in minimal or Dulbecco’s modified Eagle’s or Ham’s F10 medium supplemented with 10% fetal bovine serum (Gibco by Thermo Fisher Scientific, Waltham, MA, USA) and (for BICR 18) 0.4 μg/mL hydrocortizone (Sigma-Aldrich by Merck, Darmstadt, Germany) under standard culture conditions (37 °C, 5% CO2) in a humidified incubator with an atmospheric oxygen.
(§3) The viability of cells was assayed by measuring the conversion of MTT (3-(4,5-dimethylthiazol-2-yl)-2,5-diphenyltetrazolium bromide) to the formazan (the rate of this reaction is proportional to the number of surviving cells). Cells were seeded in a 96-well plate at a density of 2500–3500 cells per well, 24 h before treatment. […] MTT stock solution (Sigma-Aldrich) was added at the final concentration 0.5 mg/mL. After 4 h of incubation at 37 °C, water-insoluble formazan was dissolved in a lysis buffer containing 20% SDS, 50% DMF, 2.5% hydrochloric acid and 2.5% acetic acid. Optical densities were measured at 570 nm using a scanning multi-well spectrophotometer ([…] Detection Platform; Beckman Coulter, Brea, CA, USA). At least three independent experiments of viability were conducted.

[2] = tested on: lung carcinoma A549; experiment: MTT cell viability assay, A549; type: cell-based, human; details: 72 h, median (95% Confidence Intervals)
Procedure: as §1, §2, §3

[3] = tested on: colorectal carcinoma HCT116; experiment: MTT cell viability assay, HCT116; type: cell-based, human; details: median (95% Confidence Intervals)
Procedure: as §1, §2, §3

[4] = tested on: colorectal carcinoma HCT116p53^−/−; experiment: MTT cell viability assay, HCT116p53−/−; type: cell-based, human; details: 72 h, median (95% Confidence Intervals)
Procedure: as §1, §2, §3

[5] = tested on: glioblastoma U-87 MG; experiment: MTT cell viability assay, U-87 MG; type: cell-based, human; details: 72 h, median (95% Confidence Intervals)
Procedure: as §1, §2, §3

[6] = tested on: glioblastoma U-251 MG; experiment: MTT cell viability assay, U-251 MG; type: cell-based, human; details: 72 h, median (95% Confidence Intervals)
Procedure: as §1, with “The remaining cell lines were purchased from ATCC (Manassas, VA, USA) or Sigma-Aldrich by Merck (Darmstadt, Germany).” left out
The viability of cells was assayed by measuring the conversion of MTT (3-(4,5-dimethylthiazol-2-yl)-2,5-diphenyltetrazolium bromide) to the formazan (the rate of this reaction is proportional to the number of surviving cells). […] Optical densities were measured at 570 nm using a scanning multi-well spectrophotometer ([…] Detection Platform; Beckman Coulter, Brea, CA, USA). […]

[7] = tested on: breast adenocarcinoma MCF7; experiment: MTT cell viability assay, MCF7; type: cell-based, human; details: 72 h, median (95% Confidence Intervals)
Procedure: as §1, §2, §3

[8] = tested on: breast adenocarcinoma MDA-MB-231; experiment: MTT cell viability assay, MDA-MB-231; type: cell-based, human; details: MDA-MB-231, MTT, 72 h, median (95% Confidence Intervals)
Procedure: as §1, §2, §3

[9] = tested on: cervical squamous cell carcinoma SKG-IIIa; experiment: MTT cell viability assay, SKG-IIIa; type: cell-based, human; details: SKGIIIa, 72 h, median (95% Confidence Intervals)
Procedure: as §1, §2, §3

[10] = tested on: cervical adenocarcinoma HeLa; experiment: MTT cell viability assay, HeLa; type: cell-based, human; details: 72 h, median (95% Confidence Intervals)
Procedure: as §1, §2, §3

[11] = tested on: bone osteosarcoma U-2 OS; experiment: MTT cell viability assay, U-2 OS; type: cell-based, human; details: 72 h, median (95% Confidence Intervals)
Procedure: as §1, §2, §3

[12] = tested on: hepatocellular carcinoma HEPG2; experiment: MTT cell viability assay, HEPG2; type: cell-based, human; details: 72 h, median (95% Confidence Intervals)
Procedure: as §1, §2, §3

[13] = tested on: larynx squamous cell carcinoma BICR 18; experiment: MTT cell viability assay, BICR 18; type: cell-based, human; details: BICR 18, MTT, 72 h, median (95% Confidence Intervals)
Procedure: as §1, §2, §3

[14] = tested on: kidney HEK 293T; experiment: MTT cell viability assay, HEK 293T; type: cell-based, human; details: 72 h, median (95% Confidence Intervals)
Procedure: as §1, §2, §3

[15] = tested on: normal lung fibroblasts MRC-5; experiment: MTT cell viability assay, MRC-5; type: cell-based, human; details: MRC-5, MTT, 72 h, median (95% Confidence Intervals)
Procedure: as §1, §2, §3

[16] = tested on: normal fibroblasts BJ; experiment: MTT cell viability assay, BJ; type: cell-based, human; details: 72 h, median (95% Confidence Intervals)
Procedure: as §1, §2, §3

[17] = biological target: T1, recombinant human PDE5A/PDE5 protein (Homo sapiens, UniProt O76074); experiment: colorimetric PDE Activity Assay Kit (Abcam), PDE5 inhibition; type: biochemical; details: for IC50: 200 μM cGMP, 40 ng enzyme, 20 min at 37 °C, 4% DMSO, read-out: IC50 against human PDE5; for Ki: read-out: Ki against human PDE5
T1 construct: purchased Abcam
Procedure: A high concentration of cGMP substrate was used (200 μM) due to the moderate sensitivity of the aforementioned assay.
The inhibitory effect of the tested compounds was measured using colorimetric PDE Activity Assay Kit (Abcam, Cambridge, UK). This assay allows the quantification of 5′-nucleotide released in the reaction catalyzed by tested phosphodiesterase, PDE5, using the additional enzyme 5′-nucleotidase to cleave the mentioned product, and next, using modified Malachite Green assay, the phosphate is quantified. The assay was carried in a 96-well plate at a volume of 40 μL in an assay buffer, containing 40 ng recombinant human PDE5A/PDE5 protein (Abcam), 200 μM cGMP, 25 kU 5′-nucleotidase and serially diluted ligand to preserve 4% of DMSO. The reaction was initiated with the enzyme and kept going for 20 min at 37 °C. The reaction was stopped by adding 80 μL of Green Assay reagent. After incubation at room temperature for 30 min (to develop color proportional to phosphate content), the absorbance at 620 nm was measured with The SpectraMax iD3 Multi-Mode Microplate Reader (Molecular Devices, San Jose, CA, USA). Inhibitors concentrations varied in the range of 2 pM–200 μM. Each experiment was repeated 4–5 times and IC50 values were calculated by global fitting of the sigmoidal dose response equation implemented in Origin 9.0 package (www.originlab.com). For each experiment, control reaction with no enzyme added and without inhibitor was also performed.

[18] = tested on: blood platelet aggregation; experiment: platelet aggregation in platelet-rich plasma (light transmittance aggregometry, collagen + DEA-NO); type: cell-based; details: Homo sapiens, 10 μM compound, 500 nM DEA-NO, 2 μg/mL collagen, vs DMSO + DEA-NO
Excerpt: Nitric oxide is one of the main physiological antiplatelet molecules secreted by vascular endothelium. It stimulates intraplatelet production of cGMP. This secondary messenger is then decomposed in platelets by the activity of two out of three PDE isoforms which are detected in platelets, namely by PDE2 and PDE5, while the other isoform (PDE3) is mostly involved in cAMP hydrolysis. Inhibitors of these phosphodiesterases increase intraplatelet concentration of cGMP and thus potentiate the antiplatelet effect of NO [52]. […]
Multiplate test cells for turbidimetric aggregometry and collagen were purchased from Chronolog Co (Havertown, PA, USA). […] DEA-NO was added to the final concentration of 500 nM, and shortly after, collagen was added to each sample to a final concentration of 2 μg/mL to induce platelet aggregation, which was thereafter monitored for 10 min using an optical aggregometer Chrono-Log 490-2D (Chrono-Log, Havertown, PA, USA). The total area under the aggregation curve (AUC) and the maximal value of platelet aggregation (Amax,U) was recorded. […]
Shortly prior to measurement, 500 nM DEA-NO was added, followed by 2 μg/mL collagen. Percentage of inhibition of platelet response was calculated in comparison to a sample treated with DMSO and DEA-NO on the basis of maximal value of platelet aggregation. […]

[19] = tested on: PDE5; details: read-out: earlier reported IC50 values for PDE5; cited from earlier work

Compound | IC50 ([1]; Homo sapiens) | IC50 ([3]; Homo sapiens, HCT-116, 72 h) | IC50 ([4]; Homo sapiens) | IC50 ([5]; Homo sapiens) | IC50 ([7]; Homo sapiens) | IC50 ([9]; Homo sapiens) | IC50 ([10]; Homo sapiens) | IC50 ([11]; Homo sapiens, U2OS) | IC50 [17] | Ki [17] | IC50 ([8]; Homo sapiens) | IC50 ([2]; Homo sapiens) | IC50 ([12]; Homo sapiens) | IC50 ([13]; Homo sapiens) | IC50 ([14]; Homo sapiens) | IC50 ([15]; Homo sapiens, MRC5) | IC50 ([16]; Homo sapiens, Fibroblast) | also measured
N.N.[Cl][Pt][Cl] [Cisplatin, cisplatin, reference compound] |  |  |  |  |  |  |  |  |  |  |  |  |  |  |  |  |  | IC50 [1]: 1.51 µM; IC50 [2]: 27.2 µM; IC50 ([3]; 72 h): 7.44 µM; IC50 [4]: 14.1 µM; IC50 [5]: 4.96 µM; IC50 [6]: 2.61 µM; IC50 [7]: 11 µM; IC50 [8]: 22.3 µM; IC50 [9]: 4.84 µM; IC50 [10]: 13.5 µM; IC50 [11]: 7.55 µM; IC50 [12]: 7.8 µM; IC50 [13]: 1.69 µM; IC50 [14]: 6.25 µM; IC50 [15]: 3.92 µM; IC50 [16]: 5.58 µM
CN1CC(=O)N(Cc2cc3c(cc2Br)OCO3)[C@H](Cc2c[nH]c3ccccc23)C1=O [Compound 7a, (R)-3-((1H-indol-3-yl)methyl)-4-((6-bromobenzo[d][1,3]dioxol-5-yl)methyl)-1-methylpiperazine-2,5-dione] | 63.6 µM | 53 µM | 35.9 µM | 110 µM | 28.9 µM | 75.9 µM | 79.2 µM | 95.4 µM | 22 ± 12 µM | 0.22 ± 0.17 µM |  | 128 µM | 103 µM | 137 µM | 12.3 µM | 116 µM | 117 µM | times less effective than tadalafil as PDE5 inhibitor ([17]; compared with tadalafil, human PDE5): over 300
CN1CC(=O)N2[C@H](c3ccc4c(c3)OCO4)c3[nH]c4ccccc4c3C[C@@H]2C1=O [Tadalafil, reference compound] | 20.4 µM | 27.2 µM | 19.8 µM | 40.7 µM | 55.3 µM | 35.1 µM | 42.3 µM | 35.1 µM |  |  | 87.6 µM | 51.5 µM | 46.6 µM | 52.5 µM | 31 µM | 28.7 µM | 40.5 µM | IC50 ([6]; Homo sapiens): 44.1 µM; inhibition at 10 µM [18]: ~50%; IC50 [19]: […]

Second part, led by results:

IC50 ([1]; Homo sapiens) | IC50 ([3]; Homo sapiens, HCT-116, 72 h) | IC50 ([4]; Homo sapiens) | IC50 ([5]; Homo sapiens) | IC50 ([7]; Homo sapiens) | IC50 ([9]; Homo sapiens) | IC50 ([10]; Homo sapiens) | IC50 ([11]; Homo sapiens, U2OS) | IC50 [17] | Ki [17] | IC50 ([8]; Homo sapiens) | IC50 ([2]; Homo sapiens) | IC50 ([12]; Homo sapiens) | IC50 ([13]; Homo sapiens) | Compound | IC50 ([14]; Homo sapiens) | IC50 ([15]; Homo sapiens, MRC5) | IC50 ([16]; Homo sapiens, Fibroblast) | also measured
104 µM | 102 µM | 83.2 µM | 153 µM | 53.2 µM | 146 µM | 120 µM | 93.5 µM | 137 ± 47 µM | 1.4 ± 0.8 µM |  |  |  |  | CN1CC(=O)N(Cc2ccc3c(c2)OCO3)[C@H](Cc2c[nH]c3ccccc23)C1=O [Compound 6a, (R)-3-((1H-indol-3-yl)methyl)-4-(benzo[d][1,3]dioxol-5-ylmethyl)-1-methylpiperazine-2,5-dione] | 10.5 µM |  |  | 
112 µM | 83.7 µM | 143 µM | 151 µM | 54.1 µM | 87.6 µM | 93.5 µM | 88.3 µM | 260 ± 210 µM | 2.6 ± 2.7 µM | 128 µM |  |  |  | CN1CC(=O)N(Cc2ccc3c(c2)OCO3)[C@@H](Cc2c[nH]c3ccccc23)C1=O [Compound 6b, (S)-3-((1H-indol-3-yl)methyl)-4-(benzo[d][1,3]dioxol-5-ylmethyl)-1-methylpiperazine-2,5-dione] | 13 µM | 127 µM | 143 µM | 
46.6 µM | 58.7 µM | 64.4 µM | 99 µM | 36.3 µM | 57.3 µM | 78.4 µM | 88.8 µM | 39 ± 27 µM | 0.39 ± 0.36 µM | 144 µM | 131 µM | 124 µM | 142 µM | CN1CC(=O)N(Cc2cc3c(cc2Br)OCO3)[C@@H](Cc2c[nH]c3ccccc23)C1=O [Compound 7b, (S)-3-((1H-indol-3-yl)methyl)-4-((6-bromobenzo[d][1,3]dioxol-5-yl)methyl)-1-methylpiperazine-2,5-dione] | 13.1 µM | 96.6 µM | 103 µM | 
